Experimental findings from patent US8101550B2, “Anthranilic acid diamide derivative with hetero-aromatic and hetero-cyclic substituents” (Bayer Cropscience AG, priority 2006, dated 2012) are described below.

Like-named read-outs stand apart in the source and are kept apart here.

Data set [1] deals with caterpillars of the armyworm (Spodoptera frugiperda). Kind of data set: Spodoptera frugiperda test (cabbage leaves, immersion). Format: in vivo. The note with it: cabbage leaves immersed. As to the method:
An appropriate preparation of active compound is prepared by mixing 1 part by weight of active compound with the stated amounts of solvent and emulsifier and diluting the concentrate with emulsifier-containing water to the desired concentration.
Cabbage leaves (Brassica oleracea) are treated by immersion into a preparation of active compound at the desired concentration and, are populated with caterpillars of the armyworm (Spodoptera frugiperda) while the leaves are still wet.
After the desired time the effect in % is determined. 100% means that all of the caterpillars have been killed; 0% means that no caterpillars have been killed.
Cabbage leaves (Brassica oleracea) are treated by immersion into a preparation of active compound at the desired concentration and are populated with caterpillars of the armyworm (Spodoptera frugiperda) while the leaves are still wet.

A short description of data set [2]: log P determination by HPLC on reverse-phase column (EEC Directive 79/831 Annex V.A8). Format: physicochemical. A digest of the protocol: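 Reverse-phase C18 HPLC at 43 °C, following EEC Directive 79/831 Annex V.A8. Acidic LC-MS used pH 2.7 eluents (0.1% aqueous formic acid and acetonitrile with 0.1% formic acid) on a 10–95% acetonitrile linear gradient. Log P was interpolated linearly from retention times against unbranched C3–C16 alkan-2-ones of known log P.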

The mark [3] stands for this setting: HPLC, reverse-phase column (C 18), 43° C., acidic range pH 2.7.

A word on the chromatographic logP: it is lipophilicity estimated from chromatographic retention. Read a high chromatographic logP as a more lipophilic compound. Regarding `CNC(=O)c1cc(Cl)cc(C)c1NC(=O)c1cc(Cn2nc(C(F)(F)F)cc2C(F)(F)F)nn1-c1ncccc1Cl` [I-1-1, 5-(3,5-Bis-trifluoromethylpyrazol-1-ylmethyl)-2-(3-chloropyridin-2-yl)-2H-pyrazole-3-carboxylic acid 4-chloro-2-methyl-6-methylcarbamoylphenyl amide], the “Kill level after 7 d in %” value in data set [1] (100 g/ha) turned out to be 100%. The molecule also registered a chromatographic logP in data set [2] (pH 2.7) of 3.67.
By logP is commonly meant the decadic logarithm of the partition coefficient of the neutral form, usually between octanol and water. For the molecule `Cc1cc(Cl)cc(C(=O)NC(C)C)c1NC(=O)c1cc(Cn2nc(C(F)(F)F)cc2C(F)(F)F)nn1-c1ncccc1Cl` [I-1-2], the “Kill level after 7 d in %” value in data set [1] (100 g/ha) came out at 100%. Moreover, the logP in data set [2] (HPLC on reverse-phase column) is 4.08.
For `Cc1cc(Cl)cc(C(=O)NC(C)C)c1NC(=O)c1cc(Cn2nc(C(F)(F)F)nc2C(F)(F)F)nn1-c1ncccc1Cl` [I-1-5], the “Kill level after 7 d in %” value in data set [1] (0.8 g/ha) and in data set [1] (100 g/ha) was 100% throughout. Also, the logP in data set [2] (HPLC on reverse-phase column) was found to be 3.88.
As for `Cc1cc(Cl)cc(C(=O)NC(C)C)c1NC(=O)c1cc(Cn2ccc(C(F)(F)F)n2)nn1-c1ncccc1Cl` [I-1-6], the “Kill level after 7 d in %” value in data set [1] (0.8 g/ha) and in data set [1] (100 g/ha) was 100% throughout. The molecule also returned a logP in data set [2] (HPLC on reverse-phase column) of 3.27.
Consider `Cc1cc(Cl)cc(C(=O)NC(C)C)c1NC(=O)c1cc(Cn2cc(F)cn2)nn1-c1ncccc1Cl` [I-1-7], for which the “Kill level after 7 d in %” value in data set [1] (100 g/ha) is on record as 100%. This molecule had a logP in data set [2] (HPLC on reverse-phase column) of 2.70.
Consider `Cc1cc(Cl)cc(C(=O)NC(C)C)c1NC(=O)c1cc(Cn2cc(C#N)cn2)nn1-c1ncccc1Cl` [I-1-8], for which the “Kill level after 7 d in %” value in data set [1] (0.8 g/ha) and in data set [1] (100 g/ha) was 100% each time. In data set [2] (HPLC on reverse-phase column), the logP amounted to 2.57.
In the case of `Cc1cc(Cl)cc(C(=O)NC(C)C)c1NC(=O)c1cc(Cn2cccn2)nn1-c1ncccc1Cl` [I-1-9], the “Kill level after 7 d in %” value in data set [1] (100 g/ha) is 100%. The molecule also gave a logP in data set [2] (HPLC on reverse-phase column) of 2.45.
With `Cc1cc(Cl)cc(C(=O)NC(C)C)c1NC(=O)c1cc(Cn2nc(C(F)(F)F)cc2C(F)(F)F)nn1-c1ccccc1Cl` [I-1-10], the “Kill level after 7 d in %” value in data set [1] (100 g/ha) came out at 100%. The logP in data set [2] (HPLC on reverse-phase column) stood at 4.70.
In the same order, the values of `CNC(=O)c1cc(Cl)cc(C)c1NC(=O)c1cc(Cn2nc(C(F)(F)F)cc2C(F)(F)F)nn1-c1ccccc1Cl` [I-1-11] are 100% and 4.12.
Take `Cc1cc(C#N)cc(C(=O)NCC#N)c1NC(=O)c1cc(Cn2cnc(C(F)(F)C(F)(F)F)n2)nn1-c1ncccc1Cl` [I-1-351]: in data set [2], the logP was 1.96.
The molecule `CNC(=O)c1cc(C#N)cc(C)c1NC(=O)c1cc(Cn2cnc(C(F)(F)C(F)(F)F)n2)nn1-c1ncccc1Cl` [I-1-352] returned a logP in data set [2] of 1.91.
In data set [2], `Cc1cc(C#N)cc(C(=O)NC2CC2)c1NC(=O)c1cc(Cn2cnc(C(F)(F)C(F)(F)F)n2)nn1-c1ncccc1Cl` [I-1-353] yielded a logP of 2.08.
In data set [2], `Cc1cc(C#N)cc(C(=O)NC(C)C)c1NC(=O)c1cc(Cn2cnc(C(F)(F)C(F)(F)F)n2)nn1-c1ncccc1Cl` [I-1-354] came in with a logP of 2.23.
Same read-out and setting: in the case of `CNC(=O)c1cc(Cl)cc(C)c1NC(=O)c1cc(C(=NOC)n2nc(C(F)(F)F)cc2C(F)(F)F)nn1-c1ncccc1Cl` [I-1-355] it was 4.07.
In turn, `Cc1cc(Cl)cc(C(=O)NC(C)C)c1NC(=O)c1cc(Cn2nc(C(F)(F)F)cc2C(F)(F)F)nn1C` [I-2-1] had a logP in data set [2] (setting [3]) of 4.08.
Take `CC(C)NC(=O)c1cc(Cl)cc(Cl)c1NC(=O)c1cc(Cn2nc(C(F)(F)F)nc2C(F)(F)F)nn1C(C)C` [I-2-2]: the logP in data set [2] (setting [3]) stood at 3.85.
`CNC(=O)c1cc(Cl)cc(Cl)c1NC(=O)c1cc(Cn2nc(C(F)(F)F)nc2C(F)(F)F)nn1C(C)C` [I-2-3]: the logP in data set [2] (setting [3]) is 3.31.
For `CNC(=O)c1cc(Cl)cc(Cl)c1NC(=O)c1cc(Cn2nc(C(F)(F)F)nc2C(F)(F)F)nn1C1CCCO1` (stereo not shown) [I-2-5], the logP in data set [2] (setting [3]) is 2.83.
Take `CNC(=O)c1cc(Cl)cc(Cl)c1NC(=O)c1cc(Cn2nc(C(F)(F)F)nc2C(F)(F)F)nn1C1CCOC1` (stereo not shown) [I-2-6]: the logP in data set [2] (setting [3]) was determined as 2.99.
As to `CC(C)NC(=O)c1cc(Cl)cc(Cl)c1NC(=O)c1cc(Cn2nc(C(F)(F)F)cc2C(F)(F)F)nn1-c1ncc(C(F)(F)F)cc1Cl` [I-2-8], the logP in data set [2] (setting [3]) is recorded as 4.68.
`Cc1cc(I)cc(C(=O)NC(C)C)c1NC(=O)c1cc(Cn2nc(C(F)(F)F)cc2C(F)(F)F)nn1-c1ncc(C(F)(F)F)cc1Cl` [I-2-9] registered a logP in data set [2] (setting [3]) of 4.98.
For the molecule `Cc1cc(I)cc(C(=O)NC2CC2)c1NC(=O)c1cc(Cn2nc(C(F)(F)F)cc2C(F)(F)F)nn1-c1ncc(C(F)(F)F)cc1Cl` [I-2-10], in data set [2] (setting [3]), the logP is 4.73.
As to `Cc1cc(Cl)cc(C(=O)NC(C)C)c1NC(=O)c1cc(Cn2nc(C(F)(F)F)cc2C(F)(F)F)nn1-c1ncc(C(F)(F)F)cc1Cl` [I-2-11], the logP in data set [2] (setting [3]) is 4.78.
In turn, `Cc1cc(Cl)cc(C(=O)NC2CC2)c1NC(=O)c1cc(Cn2nc(C(F)(F)F)cc2C(F)(F)F)nn1-c1ncc(C(F)(F)F)cc1Cl` [I-2-12] yielded a logP in data set [2] (setting [3]) of 4.52.
In data set [2] (setting [3]), `O=C(NC1CC1)c1cc(Cl)cc(Cl)c1NC(=O)c1cc(Cn2nc(C(F)(F)F)cc2C(F)(F)F)nn1-c1ncc(C(F)(F)F)cc1Cl` [I-2-13] returned a logP of 4.46. This logP and that of the molecule before are within 0.2 log units of each other.
In the case of `Cc1cc(Cl)cc(C(=O)NC(C2CC2)C2CC2)c1NC(=O)c1cc(Cn2nc(C(F)(F)F)cc2C(F)(F)F)nn1-c1ncc(C(F)(F)F)cc1Cl` [I-2-14], in data set [2] (setting [3]), the logP is recorded as 5.27.
On to `Cc1cc(Cl)cc(C(=O)NC(C)C2CC2)c1NC(=O)c1cc(Cn2nc(C(F)(F)F)cc2C(F)(F)F)nn1-c1ncc(C(F)(F)F)cc1Cl` (stereo not shown) [I-2-15], for which the log partition coefficient (logP) in data set [2] (setting [3]) was 4.04.
Same read-out and setting: in the case of `Cc1cc(Cl)cc(C(=O)NC(C)(C)C)c1NC(=O)c1cc(Cn2nc(C(F)(F)F)cc2C(F)(F)F)nn1-c1ncc(C(F)(F)F)cc1Cl` [I-2-16] it was 5.12; in that of `Cc1cc(Cl)cc(C(N)=O)c1NC(=O)c1cc(Cn2nc(C(F)(F)F)cc2C(F)(F)F)nn1-c1ncc(C(F)(F)F)cc1Cl` [I-2-17], 4.09.
In the case of `Cc1cc(Cl)cc(C(=O)NCC#N)c1NC(=O)c1cc(Cn2nc(C(F)(F)F)cc2C(F)(F)F)nn1-c1ncc(C(F)(F)F)cc1Cl` [I-2-18], the logP in data set [2] (setting [3]) amounted to 4.23.
On to `Cc1cc(F)cc(C(=O)NC2CC2)c1NC(=O)c1cc(Cn2nc(C(F)(F)F)cc2C(F)(F)F)nn1-c1ncc(C(F)(F)F)cc1Cl` [I-2-19], for which the logP in data set [2] (setting [3]) is reported as 4.11.
In data set [2] (setting [3]), `Cc1cc(F)cc(C(=O)NC(C)C)c1NC(=O)c1cc(Cn2nc(C(F)(F)F)cc2C(F)(F)F)nn1-c1ncc(C(F)(F)F)cc1Cl` [I-2-20] came in with a logP of 4.47.
In data set [2] (setting [3]), `Cc1cc(Br)cc(C(=O)NC(C)C)c1NC(=O)c1cc(Cn2nc(C(F)(F)F)cc2C(F)(F)F)nn1-c1ncc(C(F)(F)F)cc1Cl` [I-2-21] had a logP of 4.75.
As to `CNC(=O)c1cc(Cl)cc(C)c1NC(=O)c1cc(Cn2nc(C(F)(F)F)cc2C(F)(F)F)nn1-c1ncc(C(F)(F)F)cc1Cl` [I-2-22], the logP in data set [2] (setting [3]) worked out at 3.53.
In turn, `CNC(=O)c1cc(Cl)cc(Cl)c1NC(=O)c1cc(Cn2nc(C(F)(F)F)cc2C(F)(F)F)nn1-c1ncc(C(F)(F)F)cc1Cl` [I-2-23] had a logP in data set [2] (setting [3]) of 3.54.
In data set [2] (setting [3]), `Cc1cc(Br)cc(C(=O)NC2CC2)c1NC(=O)c1cc(Cn2nc(C(F)(F)F)cc2C(F)(F)F)nn1-c1ncc(C(F)(F)F)cc1Cl` [I-2-24] had a logP of 4.63.
Take `CC(C)NC(=O)c1cc2ccccc2c(Cl)c1NC(=O)c1cc(Cn2nc(C(F)(F)F)cc2C(F)(F)F)nn1-c1ncccc1Cl` [I-3-1]: in data set [2] (setting [3]), the logP is on record as 4.08.
